Laboratory results: article PMC4979060, “Structural basis of metallo-β-lactamase, serine-β-lactamase and penicillin-binding protein inhibition by cyclic boronates” (Nature Communications, 2016)

How the values were obtained:
[1] = test system: HEK293 cells; experiment: Cytotoxicity assay (MTS); type: cell-based; conditions: human HEK293 cells, concentrations up to 100 μM, 24 h
Procedure: HEK293 cells were seeded (2,000 per well) in normal DMEM in 96-well plates.[34] After 24 h, wells were dosed with titrated concentration of compounds in 1% dimethyl sulphoxide (DMSO)—final volume of media about 100 μl. Following a further 24 h incubation period, 20 μl tetrazolium (MTS, CellTiter96Aqueous One Solution (Promega)) was added to the media in each well. The plate was incubated at 37 °C, 5% CO2 for 4 h in the dark before absorbance was read at 490 nm to determine cell proliferation values.

[2] = target: T1, TEM-1 (Escherichia coli, UniProt P62593); experiment: Fluorogenic β-lactamase inhibition assay (FC-5 substrate), TEM-1; type: biochemical
T1 construct: made in house; host or cells: E. coli
T1 sequence (P62593 24-286 limits assumed): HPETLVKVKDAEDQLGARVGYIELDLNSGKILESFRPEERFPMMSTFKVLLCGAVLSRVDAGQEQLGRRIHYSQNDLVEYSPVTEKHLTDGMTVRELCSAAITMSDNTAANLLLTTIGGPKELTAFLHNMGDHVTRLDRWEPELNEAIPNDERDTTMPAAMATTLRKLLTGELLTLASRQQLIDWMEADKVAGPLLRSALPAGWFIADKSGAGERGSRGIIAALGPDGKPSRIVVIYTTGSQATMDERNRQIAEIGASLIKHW
Procedure: Kinetic and inhibition analyses, and ^19F NMR studies[10] against bacterial β-lactamases were performed as described. The FC-5 cephalosporin[9] was used as substrate for BcII, VIM-2, IMP-1, NDM-1, SPM-1, TEM-1 and OXA-10, meropenem[28] for CphA and nitrocefin[34] for PBP 3 and PBP 5.
In brief IC50 values were determined by preincubation of the appropriate amount of enzyme with the cyclic boronates in the assay buffers for 10 min at room temperature prior to the initiation of the assay by the addition of the appropriate substrate. The enzyme concentrations used are the following: 1 nM BcII, 100 nM VIM-2, 10 nM IMP-1, 10 nM NDM-1, 1 nM SPM-1, 1 nM TEM-1, 1 nM OXA-10, 2.5 nM CphA, 4 μM PBP 3 and 5 μM PBP 5; note that the final concentrations are stated. The assay buffers used are the following: 50 mM HEPES, pH 7.2 supplemented with 1 μg BSA, 1 μg ZnSO4 and 0.01% Triton for BcII, VIM-2, IMP-1, NDM-1 and SPM-1, 15 mM MES, pH 6.5 for CphA, 50 mM HEPES, pH 7.2 supplemented with 200 mM NaCl and 0.01% Triton 100 for TEM-1, 100 mM sodium phosphate, pH 7.2 supplemented with 50 mM NaHCO3 and 0.01% Triton 100 for OXA-10 and 50 mM HEPES, pH 7.2 supplemented with 200 mM NaCl and 0.01% Triton 100 for PBP 3 and PBP 5. The amount of substrates used is the following: 5 μM for BcII, VIM-2, IMP-1, NDM-1 and SPM-1, 10 μM for TEM-1 and OXA-10, 125 μM for CphA and 25 μM for PBP 3 and PBP 5; note that the final concentrations are stated.
The experiments were performed using a PHERAstar FS microplate reader (BMG Labtech) at room temperature (24–25 °C). All enzymes and inhibitors were prepared in the specific assay buffer. The kinetic values in this study are the means from at least three independent measurements; at least nine different concentrations of the inhibitor were used to determine the kinetic parameters (IC50). The IC50 values were determined using the software package Graph Prism 5.

[3] = test system: K. pneumoniae NCTC 5055; experiment: MIC by broth microdilution; type: cell-based; conditions: data not shown
From the text: (§1) Bacterial strains: E. coli ATCC 25922 (ref. [35]) and K. pneumoniae NCTC 5055 (ref. [36]) were used as reference strains. K. pneumoniae Ecl8 (ref. [16]) and its ramR knock-out[37] were used as previously described. K. pneumoniae strain IR8 (ref. [40]), and E. coli strains IR10 and IR60 (ref. [17]) were generous gifts of Prof. T.R. Walsh. Plasmid pSU18:NDM-1 contains the complete blaNDM-1 open reading frame, together with its promoter, cloned into plasmid pSU18 (ref. [41]). The recombinant plasmid was made by PCR amplifying the blaNDM-1 gene and surrounding sequences from E. coli IR10 with primers NDM1F 5′- […] -3′ and NDM1R 5′- GGCGATGACAGCATCATC -3′, TA cloning the amplicon into pCR2.1 TOPO (Invitrogen) and subcloning into pSU18 using BamHI and XbaI.
(§2) MIC values were determined by broth microdilution, in triplicate, in cation-adjusted Mueller Hinton broth (Sigma) according to the Clinical Laboratory Standards Institute (CLSI) guidelines. Experiments were carried out in microtitre plates (Corning) containing the medium plus meropenem (Sequoia Research Products, Pangbourne, UK) and/or inhibitor 2 as appropriate. Chloramphenicol (20 μg ml^−1) was included in assays of strains (K. pneumoniae Ecl8 and derivative) that carried pSU18 plasmids or derivatives (pSU18:NDM-1) to ensure maintenance of plasmids throughout. Inhibitor 2 was dissolved in DMSO to 100 mg ml^−1 and diluted in broth. The final concentration of DMSO in the assays was kept constant at 0.01% (experiments using 10 μg ml^−1 inhibitor) or 0.03% (experiments using 25 μg ml^−1 inhibitor). Plates were incubated overnight at 37 °C for 18–24 h and absorbance at 600 nm read using a Polarstar Omega (BMG LabTech) plate reader.

[4] = test system: K. pneumoniae Ecl8 pSU18; experiment: MIC by broth microdilution; type: cell-based; conditions: Klebsiella pneumoniae, ECL8PSU18, read-out: 2 MIC
From the text: as §1, §2

[5] = test system: K pneumoniae Ecl8 ΔramR pSU18:NDM-1; experiment: MIC by broth microdilution; type: cell-based; conditions: Klebsiella pneumoniae, read-out: 2 MIC, 2 alone; Ecl8 ΔramR pSU18:NDM-1 (blaSHV-1; blaNDM-1)
From the text: as §1, §2

[6] = test system: E. coli IR60; experiment: MIC by broth microdilution; type: cell-based; conditions: Escherichia coli, IR60, read-out: 2 MIC
From the text: as §1, §2

[7] = test system: E. coli IR10; experiment: MIC by broth microdilution; type: cell-based; conditions: Escherichia coli, IR10, read-out: 2 MIC
From the text: as §1, §2

[8] = test system: E. coli ATCC 25922; experiment: MIC by broth microdilution; type: cell-based; conditions: data not shown
From the text: as §1, §2

[9] = test system: K pneumoniae Ecl8 ΔramR pSU18; experiment: MIC by broth microdilution; type: cell-based; conditions: Klebsiella pneumoniae, read-out: 2 MIC
From the text: as §1, §2

[10] = test system: K. pneumoniae IR8; experiment: microbe, parasite or virus in culture; type: cell-based; conditions: Klebsiella pneumoniae; 2 alone; K. pneumoniae IR8 (blaSHV-1; blaDHA-1; blaCTX-M-15; blaTEM-1; blaNDM-1); read-out: 2 MIC
From the text: as §1, §2

With `NCc1ccc(C(=O)N[C@H]2Cc3cccc(C(=O)O)c3O[B-]2(O)O)cc1` [compound 2] the cytotoxicity [1] was “Neither 1 nor 2 showed cytotoxicity”, the pIC50 [2] was 8.4 and the IC50 ([2]; 10 min preincubation) was 3 nM. The “antibacterial activity of 2 alone (highest concentration without activity)” value [3] was greater than 128 µg/mL, the MIC [4] was greater than 128 µg/mL and the MIC [5] was greater than 128 µg/mL. The MIC [6] was greater than 128 µg/mL, the MIC [7] was greater than 128 µg/mL and the “antibacterial activity of 2 alone (highest concentration without activity)” value [8] was greater than 128 µg/mL. For the same molecule, the MIC [9] was greater than 128 µg/mL and the MIC [10] was greater than 128 µg/mL.
